Data reported in patent publication US4985445A, “Cancer cell metastasis inhibitors and novel compounds” (Meiji Seika Kaisha, Ltd., priority 1988, dated 1991).
Structures can show the parent of a compound that is named as a salt. Where two headings read alike, the source gives them in different places.

Experiments:
[1] = tested on: B16 subline of high pulmonary metastatic potential; assay: Inhibition of pulmonary metastasis of B16 subline pretreated with compound and injected i.v. into BDF1 mice; format: in vivo, murine; mouse BDF1; details: for Inhibition of metastasis to the lungs (in words): B16 subline, BDF1 mice
Description: Based on the method described priviously (Method in Cancer Research, 15, 399-439, 1978), a subline of high metastatic potential (high pulmonary colonization) was selected from murine melanoma B16 by repeating the i.v. transplantation of the tumor cells in BDF1 mice and the isolation of pulmonary metastatic clones.
Evaluation of the metastasis inhibiting activity was performed based on the method described previously (Proc. Natl Acad. Sci. USA, 83, 1752-1756, 1986, Cancer Research, 46, 858-862, 1986).
Firstly, the B16 subline of high metastatic potential was inoculated into Dulbecco's ME medium (DME medium) supplemented with 10% bovine fetal serum and the compound represented by general formula (I) described above was added thereto.
The B16 subline of high pulmonary metastatic potential was inoculated into DME medium supplemented with 10% bovine fetal serum and 30, 100 or 300 μg/ml of N (3-phenylpropyl)-1-deoxynojirimycin was added thereto followed by incubation at 37° C. for 3 days in the presence of 5% CO2.
Inhibition of metastasis was examined in a manner similar to Test Example 2 except that N-(3-phenyl-2-propenyl)-1-deoxy-nojirimycin and N-(3-p-chlorophenyl-3-methyl-2-propenyl)-1-deoxynojirimycin were used instead of N-(3-phenylpropyl)-1-deoxynojirimycin in Test Example 2. In this test example, however, 2.5×10^5 cells each of the B16 subline were transplanted to 3 mice for each group.
The B16 subline of high pulmonary metastatic potential was inoculated into DME medium supplemented with 10% bovine fetal serum and 30 μg/ml of N-(4-phenoxy-trans-2-butenyl)-1-deoxynojirimycin was added thereto followed by incubation at 37° C. for 3 days in the presence of 5% CO2. […] The number of colonies of the B16 subline formed on the surface of and in the lung was counted.
Inhibition of metastasis was examined in a manner similar to Test Example 5 except that N-(2-phenoxyethyl)-1-deoxynojirimycin was used instead of N-(4-phenoxy-trans-2-butenyl)-1-deoxynojirimycin in Test Example 5.
The B16 sibline of high pulmonary metastatic potential was inoculated into DME medium supplemented with 10% bovine fetal serum and 10 μg/ml of D-glucaro-δ-lactam calcium salt was added thereto followed by incubation at 37° C. for 3 days in the presence of 5% CO2. […] The number of the colonies formed on the surface of and in the lung was counted.
Inhibition of metastasis was examined in a manner similar to Test Example 8 except that D-glucaro-δ-lactam methyl ester and D-glucaro-δ-lactam ethyl ester were used instead of D-glucaro-δ-lactam calcium salt in Test Example 8.
The B16 subline of high pulmonary metastatic potential was inoculated into DME medium supplemented with 10% bovine fetal serum and 10 μg/ml of 2,6-di-O-(acetylsalicyloyl)-D-gluco-δ-lactam was added thereto followed by incubation at 37° C. for 3 days in the presence of 5% CO2.
The B16 subline of high pulmonary metastatic potential was inoculated into DME medium supplemented with 10% bovine fetal serum and 30 μg/ml of 6-O-triphenylmethyl-D-gluco-δ-lactam was added thereto followed by incubation at 37° C. for 3 days in the presence of 5% CO2.
The B16 subline of high pulmonary metastatic potential was inoculated into DME medium supplemented with 10% bovine fetal serum and 30 μg/ml of 1-deoxynojirimycin was added thereto followed by incubation at 37° C. for 3 days in the presence of 5% CO2.

[2] = Acute toxicity (LD50) by mice; details: mouse, in vivo
[3] = tested on: B16 subline of high pulmonary metastatic potential; details: 3 days;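 note: + means growth and ± means marked inhibition and - means cell death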
Description: (§1) The B16 subline of high pulmonary metastatic potential and murine tumor cell line L 929 were cultured in DME medium supplemented with 10% bovine fetal serum at 37° C. in the presence of 5% CO2. Then, cells were detached from the Petri dish with trypsin-EDTA solution. The B16 subline and L 929 were suspended in the medium described above in 1×10^4 cells/ml and 1×10^3 cells/ml, respectively. Each suspension, 150 μl, was added to 50 μl of N-(3-phenylpropyl)-1-deoxynojirimycin solution or Adriamycin (control) solution. Incubation was performed for 3 days for the B16 subline and for 4 days for L 929 strain.
as §1, with “of N-(4-phenoxy-trans-2-butenyl)-1-deoxynojirimycin” for “of N-(3-phenylpropyl)-1-deoxynojirimycin”, “days in” for “days for”, “L 929.” for “L 929 strain.”
as §1, with “of D-glucaro-δ-lactam calcium salt” for “of N-(3-phenylpropyl)-1-deoxynojirimycin”, “(control) solutions.” for “(control) solution.”, “days in” for “days for”, “L 929.” for “L 929 strain.”
The B16 subline of high pulmonary metastatic potential and murine tumor cell line L 929 were cultured in DME medium supplemented with 10% bovine fetal serum at 37° C. in the presence of 5% CO2. Then, cells were detached from the Petri dish with trypsin-EDTA solution. The B16 subline and L 929 were suspended in the medium described above in 1×10^4 cells/ml and 1×10^3 cells/ml, respectively. Each suspension, 150 μl, was added to 50 μl of 2,6-di-O-(1-(p-chlorobenzoyl)-5-methoxy-2-methylindole-3-acetyl)-D-gluco-δ-lactam solution or and Adriamycin (control) solutions. Incubation was performed for 3 days in the B16 subline and for 4 days in L 929.
The B16 subline of high pulmanary metastatic potential and murine tumor cell line L 929 were cultured in DME medium supplemented with 10% bovine fetal serum at 37° C. in the presence of 5% CO2. Then, cells were detached from the Petri dish with trypsin-EDTA solution. The B16 subline and L 929 were suspended in the medium described above in 1×10^4 cells/ml and 1×10^3 cells/ml, respectively. Each suspension, 150 μl, was added to 50 μl of 6-O-triphenylmethyl-D-gluco-δ-lactam solution or Adriamycin (control) solutions. Incubation was performed for 3 days in the B16 sibline and for 4 days in L 929.
The B16 subline of high pulmonary metastatic potential was inoculated into DME medium supplemented with 10% bovine fetal serum and 30 μg/ml of 1-deoxynojirimycin was added thereto followed by incubation at 37° C. for 3 days in the presence of 5% CO2. […] Next, the cells were detached from the Petri dish with trypsin-EDTA solution. The cells were suspended in PBS- in 1×10^6 cells/ml as viable cells. This suspension, 0.1 ml, was intravenously injected in the tail vein of the mouse BDF1 (8 week age, male; 1 group, 3 mice). After feeding for 14 days, the mouse was sacrificed to excise the lungs. The number of colonies of the B16 subline on the surface of and in the lungs was counted.

[4] = tested on: murine tumor cell line L 929; assay: Cytotoxic activity against L 929 (growth observed with inverted microscope, 4 days); format: cell-based; details: for Growth: 4 days;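 for growth: + means growth and ± means marked inhibition and - means cell death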
Description: The B16 subline of high pulmonary metastatic potential and murine tumor cell line L 929 were cultured in DME medium supplemented with 10% bovine fetal serum at 37° C. in the presence of 5% CO2.
The B16 subline of high pulmanary metastatic potential and murine tumor cell line L 929 were cultured in DME medium supplemented with 10% bovine fetal serum at 37° C. in the presence of 5% CO2.

[5] = L 929, even at a concentration as high as 30 μg/ml

For OC[C@@H]1[C@@H](O)[C@H](O)[C@@H](O)CN1CC=Cc1ccccc1 [N-(3-phenyl-2-propenyl)-1-deoxynojirimycin], the “Inhibition of metastasis to the lungs (in words)” value (shortened to “Inhibition of metastasis”) [1] was “markedly inhibited”, the “Pulmonary Metastasis (Mean ± Standard Deviation)” value ([1]; Table 4, 30 μg/ml, 2.5×10^5 cells, 3 mice, None 109 ± 32.0) was 16.8 ± 12.6 no and the LD50 ([2]; ip) was > 500 mg/kg.

With CC(=O)Oc1ccccc1C(=O)OC[C@H]1NC(=O)[C@H](OC(=O)c2ccccc2OC(C)=O)[C@@H](O)[C@@H]1O [2,6-di-O-(acetylsalicyloyl)-D-gluco-δ-lactam] the “Inhibition of metastasis” value [1] was “markedly inhibited”, the “Pulmonary Metastasis (Mean ± Standard Deviation)” value ([1]; Table 12, 10 μg/ml, 3 mice, None 53 ± 22.4) was 11.2 ± 3.5 no and the LD50 ([2]; ip) was > 500 mg/kg.

In the case of COc1ccc2c(c1)c(CC(=O)OC[C@H]1NC(=O)[C@H](OC(=O)Cc3c(C)n(C(=O)c4ccc(Cl)cc4)c4ccc(OC)cc34)[C@@H](O)[C@@H]1O)c(C)n2C(=O)c1ccc(Cl)cc1 [2,6-di-O-[1-(p-chlorobenzoyl)-5-methoxy-2-methylindole-3-acetyl]-D-gluco-δ-lactam], the Growth ([3]; Table 11, B16 subline, 10 μg/ml) is reported as “+”, the “Cytotoxicity (in words)” value ([4]; L 929, even at a concentration as high as 10 μg/ml) is reported as “did not show marked cytotoxity” and the Growth ([4]; Table 11, L 929, 3 μg/ml) is reported as “+”. The Growth ([4]; Table 11, L 929, 10 μg/ml) was “+” and the Growth ([4]; Table 11, L 929, 30 μg/ml) was “+”.

For O=C(O)[C@H]1NC(=O)[C@H](O)[C@@H](O)[C@@H]1O [D-Glucaro-δ-lactam sodium salt], the LD50 ([2]; iv) was > 3000 mg/kg and the LD50 ([2]; po) was > 5000 mg/kg.

With O=C1N[C@H](COC(c2ccccc2)(c2ccccc2)c2ccccc2)[C@@H](O)[C@H](O)[C@H]1O [6-O-Triphenylmethyl-D-gluco-δ-lactam, 6-O-triphenylmethyl-D-gluco-δ-lactam] the “Inhibition of metastasis” value [1] was “markedly inhibited”, the “Pulmonary Metastasis (Mean ± Standard Deviation)” value ([1]; Table 14, 30 μg/ml, 3 mice, None 92 ± 21.3) was 17 ± 8.5 no and the Growth ([3]; Table 13, B16 subline, 3 μg/ml) was “+”. For the same compound, the Growth ([3]; Table 13, B16 subline, 10 μg/ml) was “+”, the Growth ([3]; Table 13, B16 subline, 30 μg/ml) was “+” and the “Cytotoxicity (in words)” value [4, 5] was “did not show marked cytotoxicity”. For the same compound, the Growth ([4]; Table 13, L 929, 10 μg/ml) was “+”, the Growth ([4]; Table 13, L 929, 30 μg/ml) was “+” and the LD50 ([2]; sc) was > 300 mg/kg.

In the case of COC(=O)[C@H]1NC(=O)[C@H](O)[C@@H](O)[C@@H]1O [D-Glucaro-δ-lactam methyl ester, D-glucaro-δ-lactam methyl ester], the “Inhibition of metastasis” value [1] is reported as “markedly inhibited”, the “Pulmonary Metastasis (Mean ± Standard Deviation)” value ([1]; Table 10, 30 μg/ml, None 82 ± 11.2) is reported as 21 ± 8.5 no and the LD50 ([2]; iv) is reported as > 5000 mg/kg. For the same compound, the LD50 ([2]; po) was > 10000 mg/kg.

With O=C(O)[C@H]1NC(=O)[C@H](O)[C@@H](O)[C@@H]1O [D-Glucaro-δ-lactam calcium salt, D-glucaro-δ-lactam calcium salt] the “Inhibition of metastasis” value [1] was “markedly inhibited”, the “Pulmonary Metastasis, Mouse 1” value ([1]; Table 9, 10 μg/ml, 14 days) was 7 no and the “Pulmonary Metastasis, Mouse 2” value ([1]; Table 9, 10 μg/ml, 14 days) was 4 no. The “Pulmonary Metastasis, Mouse 3” value ([1]; Table 9, 10 μg/ml, 14 days) was 0 no, the “Pulmonary Metastasis (Mean ± Standard Deviation)” value ([1]; Table 9, 10 μg/ml, 14 days, None 69 ± 1.0) was 3.7 ± 3.5 no and the “Pulmonary Metastasis, %” value ([1]; Table 9, 10 μg/ml, None = 100) was 5.4%. For the same compound, the Growth ([3]; Table 8, B16 subline, 10 μg/ml) was “+”, the Growth ([3]; Table 8, B16 subline, 30 μg/ml) was “+” and the “Cytotoxicity (in words)” value [4, 5] was “did not show marked cytotoxicity”. The Growth ([4]; Table 8, L 929, 10 μg/ml) was “+” and the Growth ([4]; Table 8, L 929, 30 μg/ml) was “+”.

For COc1cccc2c1C(=O)c1c(O)c3c(c(O)c1C2=O)C[C@@](O)(C(=O)CO)C[C@@H]3O[C@H]1C[C@H](N)[C@H](O)[C@H](C)O1 [Adriamycin, reference compound], the Growth ([3]; Table 2, B16 subline, 0.1 μg/ml, control) was “-”, the Growth ([3]; Table 5, B16 subline, 0.1 μg/ml, control) was “-” and the Growth ([3]; Table 8, B16 subline, 0.1 μg/ml, control) was “-”. The Growth ([3]; Table 11, B16 subline, 0.1 μg/ml, control) was “-”, the Growth ([3]; Table 13, B16 subline, 0.1 μg/ml, control) was “-” and the Growth ([4]; Table 2, L 929, 1 μg/ml, control) was “-”. For the same compound, the Growth ([4]; Table 5, L 929, 1 μg/ml, control) was “-”, the Growth ([4]; Table 8, L 929, 1 μg/ml, control) was “-” and the Growth ([4]; Table 11, L 929, 1 μg/ml, control) was “-”. The Growth ([4]; Table 13, L 929, 1 μg/ml, control) was “-”.
